{"source": "patent US6284726A", "about": "“Inhibition of angiogenesis by peptide analogs of high molecular weight kininogen domain 5” (Temple University - Of The Commonwealth System of Higher …, priority 2000, dated 2001)", "key": {"HUVEC cells": {"system": "HUVEC cells", "test": "CyQUANT proliferation assay of bFGF-stimulated HUVEC", "format": "cell-based, human", "details": "10 ng/ml bFGF; for Proliferation % Inhibition: 48 hours", "description": "Cell proliferation was determined by using CyQUANT cell proliferation assay kit from Molecular Probes (catalog #C-7026).\nHUVEC cells (50,000/well) in a 96 well microtiter plate were stimulated with 10 ng/ml bFGF in serum-free, M199 growth medium with or without HK peptide for 48 hours at 37° C. in a CO2 incubator. Cells were washed with serum-free medium and frozen at -40° C. Frozen cells were thawed and lysed with a lysis buffer containing the CyQUANT GR dye. Fluorescence was measured using a Cytofluor II Fluorescence Multi-well plate reader with excitation 485 nm and emission with 530 nm.\nThe percent inhibition of proliferation at a specific peptide concentration was determined for some peptides. For other peptides, an IC50 was calculated from a curve plotting inhibitor concentration versus percent inhibition over a inhibition range of ten to ninety percent inhibition."}, "HUVECs": {"system": "HUVECs", "test": "Transwell migration of endothelial cells to vitronectin", "format": "cell-based, human", "details": "0.27 μM; four hours at 37° C.", "description": "The lower side of 8 μm pore transwell inserts (Costar, Inc.) were coated with 2 μg/ml of vitronectin for one hour and blocked with 2% bovine serum albumin in phosphate buffered saline for one hour. The inserts were then placed into 24 well culture dishes containing 500 μl migration buffer in the lower chamber. Twenty-five thousand HUVECs in 50 μl of migration buffer were added to the upper chamber of duplicate inserts containing 50 μl of a solution of 50 μg/ml GST-SEQ ID NO. 10 peptide in migration buffer (Herpes buffered M199 medium containing 1% BSA, […], […] and 0.2 μM MnCl2) or migration buffer alone. Cells were allowed to migrate from the upper to the lower chamber for four hours at 37° C. Nonmigratory cells were removed from the upper surface by wiping the upper side with an absorbent tip. Cells which migrated to the lower side of the transwell insert were then fixed for 15 minutes with 3.7% paraformaldehyde in phosphate buffered saline and stained with a 2% crystal violet solution. After extensive water washing to remove excess crystal violet, the number of cells which had migrated were counted in three representative high power (200X) fields per inset."}, "[1]": {"system": "chorioallantoic membrane (CAM) of embryonated chicken eggs", "test": "In ovo chick chorioallantoic membrane (CAM) angiogenesis assay", "format": "in vivo", "details": "for inhibition of bFGF-stimulated angiogenesis (blood vessel branch points): bFGF-saturated filter disc on CAM, peptide 0-25 μg in 25 μl saline, 0.27 μM, applied 24 hours later", "source_text": "New vessels, quantified by blood vessel branching, occurred in response to bFGF, VEGF, or a combination of both. Accordingly, ten day old embryonated chicken eggs were candled to illuminate blood vessels under the shell. An area with a minimum of small blood vessel was identified. The chorioallantoic membrane (CAM) was dropped away from the egg shell in this area by grinding a small hole in the mineralized shell and applying pressure to the underlying inner shell membrane. This caused an air pocket to shift from the wide end of the egg to the identified area and forced a circular region of the CAM approximately 2 cm in diameter to drop away from the shell. A window was cut in the egg shell. A cortisone acetate pre-treated filter disc 5 mm in diameter that was saturated in 1 μg/mi bFGF, a combination of bFGF and VEGF, or saline and was placed on the CAM. The window in the shell was sealed with adhesive tape and the egg was incubated for four days. Peptide GST-SEQ ID NO:10 (0-25 μg in 25 μI saline; 0.27 μM) was applied to the saturated filter 24 hours later and was applied to the stimulated CAM. The CAM was then harvested on the fourth day of stimulation. Data were evaluated in terms of average number of blood vessel branch points per treatment group as well as percent of control using a video camera attached to a personal computer. Under the conditions of the assay, peptide GST-SEQ ID NO:10 inhibited bFGF-stimulated angiogenesis by 97% and bFGF/VEGF-stimulated angiogenesis by 94%. There was no inhibition of bFGF-stimulated angiogenesis by GST alone (<10% inhibition)."}}}
{"substance": "GST-His(441)-Ser(626) [GST-SEQ ID NO: 8]", "values": [{"measurement": "Proliferation % Inhibition", "setting": "HUVEC cells; peptide conc. 0.39 μM", "result": 100, "unit": "%"}]}
{"substance": "GST-Lys(420)-Ser(513) [GST-SEQ ID NO: 10]", "values": [{"measurement": "IC50", "setting": "HUVEC cells; serum-free M199, 48 hours, read-out: IC50 (inhibition of endothelial cell proliferation)", "result": "< 30", "unit": "nM"}, {"measurement": "Proliferation % Inhibition", "setting": "HUVEC cells; peptide conc. 0.27 μM", "result": 100, "unit": "%"}, {"measurement": "inhibition of HUVEC migration to vitronectin", "setting": "HUVECs", "result": 100, "unit": "%"}, {"measurement": "inhibition of bFGF-induced angiogenesis, as seen in FIG. 1D (in words)", "setting": "[1]; bFGF plus GST fusion peptide, CAM", "result": "substantial inhibition"}, {"measurement": "inhibition of bFGF-stimulated angiogenesis (blood vessel branch points)", "setting": "[1]; harvested on fourth day", "result": 97, "unit": "%"}, {"measurement": "inhibition of bFGF/VEGF-stimulated angiogenesis (blood vessel branch points)", "setting": "[1]; filter disc with combination of bFGF and VEGF on CAM, peptide 0.27 μM applied 24 hours later, harvested on fourth day", "result": 94, "unit": "%"}]}
{"substance": "GST-Lys(420)-Asp(474) [GST-SEQ ID NO: 5]", "values": [{"measurement": "Proliferation % Inhibition", "setting": "HUVEC cells; peptide conc. 0.36 μM", "result": 94, "unit": "%"}]}
{"substance": "glutathione-S-transferase [GST, reference compound]", "values": [{"measurement": "inhibition of bFGF-stimulated angiogenesis (blood vessel branch points)", "setting": "[1]; harvested on fourth day", "result": "< 10", "unit": "%"}]}
{"substance": "GST-Glu(448)-Ser(626) [GST-SEQ ID NO: 12]", "values": [{"measurement": "Proliferation % Inhibition", "setting": "HUVEC cells; peptide conc. 0.35 μM", "result": 65, "unit": "%"}]}
